According to paper PMC4172859, “Positive Darwinian selection is a driving force for the diversification of terpenoid biosynthesis in the genus Oryza” (BMC Plant Biology, 2014):

Columns and labels:
Assay in all cases: SPME GC-MS product analysis, recombinant E. coli extract
Assay type in all cases: biochemical
Settings in all cases: 10 uM FPP, 10 mM MgCl2, pH 7.0, 30 °C; mere turnover
[1] = biological target: T1, ObTPS1 (Oryza barthii, UniProt A0A0D3GW75)
T1 construct: full-length cDNA in pEXP5-CT/TOPO, E. coli BL21 Codon Plus, desalted extract
T1 sequence (A0A0D3GW75 1-575): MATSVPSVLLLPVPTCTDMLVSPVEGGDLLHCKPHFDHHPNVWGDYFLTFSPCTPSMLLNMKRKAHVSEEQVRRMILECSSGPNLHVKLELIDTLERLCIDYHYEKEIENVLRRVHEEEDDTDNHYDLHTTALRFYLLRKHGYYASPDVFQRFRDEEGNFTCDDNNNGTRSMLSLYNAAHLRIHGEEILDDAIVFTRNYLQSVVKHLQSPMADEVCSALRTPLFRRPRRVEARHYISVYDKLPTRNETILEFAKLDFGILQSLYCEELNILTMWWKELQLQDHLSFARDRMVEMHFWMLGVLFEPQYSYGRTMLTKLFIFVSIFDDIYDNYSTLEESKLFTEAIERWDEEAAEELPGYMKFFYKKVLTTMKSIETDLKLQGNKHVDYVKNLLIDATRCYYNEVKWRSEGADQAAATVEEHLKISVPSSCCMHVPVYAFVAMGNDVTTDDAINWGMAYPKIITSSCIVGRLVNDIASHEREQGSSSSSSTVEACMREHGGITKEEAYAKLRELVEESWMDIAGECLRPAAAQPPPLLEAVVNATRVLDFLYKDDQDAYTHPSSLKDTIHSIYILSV

[2] = biological target: T2, ObTPS1 (Oryza barthii, UniProt A0A0D3GW75, F318L/C429G/V433I)
T2 construct: full-length cDNA in pEXP5-CT/TOPO, E. coli BL21 Codon Plus, desalted extract

[3] = biological target: T3, OryzaTPS1 (O. glaberrima) (Oryza glaberrima, UniProt I1QFJ1)
T3 construct: gene LOC127781497; full-length cDNA in pEXP5-CT/TOPO, E. coli BL21 Codon Plus, desalted extract
T3 sequence (I1QFJ1 1-575): T1 sequence (A0A0D3GW75 1-575)

[4] = biological target: T4, OryzaTPS1 (O. glumaepatula) (Oryza glumipatula, UniProt A0A076L503)
T4 construct: full-length cDNA in pEXP5-CT/TOPO, E. coli BL21 Codon Plus, desalted extract
T4 sequence (A0A076L503 1-574): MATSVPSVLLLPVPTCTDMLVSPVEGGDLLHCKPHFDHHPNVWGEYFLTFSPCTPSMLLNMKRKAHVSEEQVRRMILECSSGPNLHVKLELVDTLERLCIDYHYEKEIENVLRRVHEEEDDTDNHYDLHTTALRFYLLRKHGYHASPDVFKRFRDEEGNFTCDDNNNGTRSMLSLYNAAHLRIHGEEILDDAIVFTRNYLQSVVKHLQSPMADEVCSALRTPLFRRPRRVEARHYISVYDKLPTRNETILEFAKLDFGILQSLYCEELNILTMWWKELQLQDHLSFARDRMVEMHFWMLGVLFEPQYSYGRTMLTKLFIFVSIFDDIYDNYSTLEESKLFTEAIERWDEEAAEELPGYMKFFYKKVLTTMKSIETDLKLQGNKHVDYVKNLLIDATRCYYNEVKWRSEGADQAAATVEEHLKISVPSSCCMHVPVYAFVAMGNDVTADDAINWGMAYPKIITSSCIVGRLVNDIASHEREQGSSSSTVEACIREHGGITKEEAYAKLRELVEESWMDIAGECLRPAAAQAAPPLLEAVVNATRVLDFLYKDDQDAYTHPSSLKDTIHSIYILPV

[5] = biological target: T5, OryzaTPS1 (O. nivara) (Oryza nivara, UniProt A0A076L4Z9)
T5 construct: full-length cDNA in pEXP5-CT/TOPO, E. coli BL21 Codon Plus, desalted extract
T5 sequence (A0A076L4Z9 1-575): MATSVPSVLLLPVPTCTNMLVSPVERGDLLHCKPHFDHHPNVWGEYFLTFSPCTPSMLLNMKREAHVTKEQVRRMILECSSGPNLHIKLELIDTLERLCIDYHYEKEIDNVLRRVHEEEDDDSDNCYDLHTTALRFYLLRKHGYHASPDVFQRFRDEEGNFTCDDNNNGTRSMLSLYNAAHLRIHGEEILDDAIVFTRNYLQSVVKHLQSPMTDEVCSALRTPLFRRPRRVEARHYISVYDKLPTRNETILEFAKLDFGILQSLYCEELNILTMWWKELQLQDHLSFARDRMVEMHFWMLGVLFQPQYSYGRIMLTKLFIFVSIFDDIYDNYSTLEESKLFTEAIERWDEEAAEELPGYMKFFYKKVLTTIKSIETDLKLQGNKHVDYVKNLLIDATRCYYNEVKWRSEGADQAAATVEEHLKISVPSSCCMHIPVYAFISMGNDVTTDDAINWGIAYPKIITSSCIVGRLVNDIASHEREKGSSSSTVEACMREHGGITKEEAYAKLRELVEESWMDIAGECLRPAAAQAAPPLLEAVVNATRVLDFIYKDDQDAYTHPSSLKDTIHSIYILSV

T2 sequence (A0A0D3GW75 entry or part of it F318L/C429G/V433I): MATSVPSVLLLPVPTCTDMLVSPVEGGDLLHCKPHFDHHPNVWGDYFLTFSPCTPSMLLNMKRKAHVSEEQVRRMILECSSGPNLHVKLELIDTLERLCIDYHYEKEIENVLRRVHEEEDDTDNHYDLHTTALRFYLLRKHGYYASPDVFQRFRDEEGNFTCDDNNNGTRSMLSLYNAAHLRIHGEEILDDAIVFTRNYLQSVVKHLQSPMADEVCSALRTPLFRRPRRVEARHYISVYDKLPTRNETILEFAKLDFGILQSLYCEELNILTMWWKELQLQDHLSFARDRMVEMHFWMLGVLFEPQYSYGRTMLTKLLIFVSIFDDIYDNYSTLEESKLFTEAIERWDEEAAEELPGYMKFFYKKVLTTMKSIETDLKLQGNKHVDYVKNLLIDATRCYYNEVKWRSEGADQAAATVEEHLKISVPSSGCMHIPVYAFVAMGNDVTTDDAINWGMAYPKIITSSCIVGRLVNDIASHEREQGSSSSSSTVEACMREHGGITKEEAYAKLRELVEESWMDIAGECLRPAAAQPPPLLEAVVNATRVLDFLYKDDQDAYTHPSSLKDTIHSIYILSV

Compound: CC(C)=CCC/C(C)=C/CC/C(C)=C/COP(=O)(O)OP(=O)(O)O [(E, E)-farnesyl diphosphate]
- SPME GC-MS product analysis, recombinant E. coli extract [1]: The enzymes were expressed in E. coli, extracted, and incubated with the substrate (E, E)-farnesyl diphosphate
- SPME GC-MS product analysis, recombinant E. coli extract [2]: The triple mutant ObTPS1-F318L + C429G + V433I produced comparable amounts of germacrene A, germacrene D
- SPME GC-MS product analysis, recombinant E. coli extract [3]: All these proteins were biochemically active
- SPME GC-MS product analysis, recombinant E. coli extract [4]: All these proteins were biochemically active
- SPME GC-MS product analysis, recombinant E. coli extract [5]: All these proteins were biochemically active
